What all share (assay type): biochemical
One assay addresses T1, human GST-DYRK1A (Homo sapiens, UniProt Q13627).
T1 construct: purified human GST-DYRK1A (full length, Thermo Scientifics) enzyme; purchased Thermo Scientifics
Nature of the assay: GST-DYRK1A enzyme inhibition, ADP-Glo kinase assay. The following applies: ATP 10 μM, GST-DYRK1A full length, read-out: DYRK1 IC50. The essentials: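 Full-length enzyme (10 ng) was incubated with 10 μM ATP and a specific substrate for 1 h at 25 °C in 40 mM Tris-HCl pH 7.4, 20 mM MgCl2, 0.5 mg/mL BSA, 50 μM DTT. Luminescence was read against a solvent control, and IC50 values were derived from 3 data sets.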
(In general: ADP-Glo first removes unused ATP, then detects ADP through luciferase.)

Another assay has as its target LRRK2 (Homo sapiens, UniProt Q5S007). Nature of the assay: LRRK2 enzyme inhibition, ADP-Glo kinase assay. More on the design: purchased Invitrogen PR8604B. The following applies: ATP 10 μM. On the procedure:
To evaluate an inhibitory activity of the compound according to the present invention against LRRK2, LRRK2 (G2019S), DYRK1, CLK1, and TTK kinases, experiments were performed as follows.
Each of the Example compounds was reacted with a purified human LRRK2 (Invitrogen #PR8604B) enzyme to evaluate an ability to inhibit an enzyme using a method as described below. A composition of 40 mM Tris-HCl (pH 7.4), 20 mM MgCl2, 0.5 mg/mL BSA, and 50 μM DTT was used as a reaction buffer, and all reactions of test substances were performed in the reaction buffer. Each of the compounds was diluted […] from a 10 mM DMSO stock using a serial dilution method, and enzyme activities were measured at final compound concentrations of 50, 10, 2, 0.4, 0.08, 0.016, 0.0032, 0.00064, 0.000128, 0.0000256, 0.00000512, and 0.000001024 μM. In the test, purified ATP (10 μM) and an enzyme substrate (0.2 μg) were reacted with a human LRRK2 (25 ng) enzyme at 25° C. for 2 hours, and the enzyme activities were determined using an in vitro ADP-Glo™ kinase assay (Promega). An enzyme-activity reaction solution, an ADP-Glo reaction solution, and an enzyme-ability detection solution were reacted at a ratio of 2:2:1 to measure a degree of inhibition of the enzyme activity with luminescence. The degree of inhibition of the enzyme activity according to the treatment concentration of each of the compounds was calculated based on the fluorescence of the enzyme activity of the solvent control which was not treated with the compound. In this case, the concentration of each of the compounds inhibiting 50% of the enzyme activity was determined to be an IC50 (nM) value, and calculated using Prism (Version 5.01; GraphPad) software.

The target in the next assay is T2, human GST-CLK1 (Homo sapiens, UniProt P49759).
T2 construct: purified human GST-CLK1 (129-end, SignalChem) enzyme; purchased SignalChem
T2 sequence (P49759 129-484 limits assumed): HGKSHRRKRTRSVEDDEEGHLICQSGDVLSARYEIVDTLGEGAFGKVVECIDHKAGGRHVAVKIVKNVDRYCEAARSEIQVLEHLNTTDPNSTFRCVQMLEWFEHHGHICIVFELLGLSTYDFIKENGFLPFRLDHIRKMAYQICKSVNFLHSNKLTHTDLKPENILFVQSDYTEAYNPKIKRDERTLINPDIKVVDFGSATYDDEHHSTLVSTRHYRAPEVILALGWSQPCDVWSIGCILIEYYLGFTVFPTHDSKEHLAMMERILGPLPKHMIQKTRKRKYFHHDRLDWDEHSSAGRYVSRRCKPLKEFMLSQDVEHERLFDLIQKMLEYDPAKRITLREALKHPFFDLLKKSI
Nature of the assay: GST-CLK1 enzyme inhibition, ADP-Glo kinase assay. The following applies: ATP 10 μM, GST-CLK1 129-end. The essentials:
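ADP-Glo luminescence read-out, relative to untreated solvent control, gave IC50 (nM) from triplicate data sets. Reactions ran an hour at 25° C with 3 ng GST-CLK1 (residues 129-end), 10 μM ATP and specific substrate in Tris-HCl pH 7.4 buffer with MgCl2, BSA and DTT.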

Chain of LRRK2 (Q5S007 970-2527 limits assumed): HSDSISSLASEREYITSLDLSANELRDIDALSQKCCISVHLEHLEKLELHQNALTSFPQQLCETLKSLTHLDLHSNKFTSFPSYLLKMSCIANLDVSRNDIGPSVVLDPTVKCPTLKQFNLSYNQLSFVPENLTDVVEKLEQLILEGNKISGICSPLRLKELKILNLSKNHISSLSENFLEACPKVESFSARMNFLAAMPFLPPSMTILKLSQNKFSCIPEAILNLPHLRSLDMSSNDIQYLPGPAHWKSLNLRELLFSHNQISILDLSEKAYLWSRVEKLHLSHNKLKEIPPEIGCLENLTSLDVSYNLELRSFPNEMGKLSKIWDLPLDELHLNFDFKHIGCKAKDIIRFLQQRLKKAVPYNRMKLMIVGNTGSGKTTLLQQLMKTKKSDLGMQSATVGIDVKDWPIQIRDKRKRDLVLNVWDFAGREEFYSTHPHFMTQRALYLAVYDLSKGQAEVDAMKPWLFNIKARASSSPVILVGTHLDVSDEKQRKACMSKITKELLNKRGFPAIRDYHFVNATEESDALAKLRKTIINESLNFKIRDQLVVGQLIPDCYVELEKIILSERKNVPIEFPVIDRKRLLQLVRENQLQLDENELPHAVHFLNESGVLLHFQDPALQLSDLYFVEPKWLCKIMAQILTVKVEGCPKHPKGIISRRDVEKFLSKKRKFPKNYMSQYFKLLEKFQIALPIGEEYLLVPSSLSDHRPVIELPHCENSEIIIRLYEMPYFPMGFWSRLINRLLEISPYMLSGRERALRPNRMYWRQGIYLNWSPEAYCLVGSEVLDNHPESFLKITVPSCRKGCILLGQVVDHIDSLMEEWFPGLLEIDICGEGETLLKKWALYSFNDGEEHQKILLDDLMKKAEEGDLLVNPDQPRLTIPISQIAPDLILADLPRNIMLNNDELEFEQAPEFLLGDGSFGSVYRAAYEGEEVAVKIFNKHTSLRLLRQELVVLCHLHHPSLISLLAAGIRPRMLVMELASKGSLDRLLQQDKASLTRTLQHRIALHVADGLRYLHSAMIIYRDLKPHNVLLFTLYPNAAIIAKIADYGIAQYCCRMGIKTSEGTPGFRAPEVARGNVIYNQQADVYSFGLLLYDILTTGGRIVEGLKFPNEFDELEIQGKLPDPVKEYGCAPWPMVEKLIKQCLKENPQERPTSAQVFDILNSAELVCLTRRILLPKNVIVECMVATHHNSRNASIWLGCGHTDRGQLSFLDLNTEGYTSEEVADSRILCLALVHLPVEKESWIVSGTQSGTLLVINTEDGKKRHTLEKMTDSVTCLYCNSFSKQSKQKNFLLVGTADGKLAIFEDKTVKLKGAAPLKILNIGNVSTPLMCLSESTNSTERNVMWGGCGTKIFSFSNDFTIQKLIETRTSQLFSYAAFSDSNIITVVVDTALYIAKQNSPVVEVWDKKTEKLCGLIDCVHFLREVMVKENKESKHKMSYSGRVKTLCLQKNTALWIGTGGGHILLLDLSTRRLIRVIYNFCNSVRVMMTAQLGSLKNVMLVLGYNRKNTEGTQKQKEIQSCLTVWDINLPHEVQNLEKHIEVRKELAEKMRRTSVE

Turning to `O=C(c1ccc(Nc2nc(NC3CCCC3)c3c(C(F)(F)F)c[nH]c3n2)c2c1OCCO2)N1CCOCC1` [Example 189, (8-((4-(cyclopentylamino)-5-(trifluoromethyl)-7H-pyrrolo[2,3-d]pyrimidin-2-yl)amino)-2,3-dihydrobenzo[b][1,4]dioxin-5-yl)(morpholino)methanone], the IC50 was 101 to 300 nM on human GST-DYRK1A, under 100 nM against LRRK2 and 101 to 300 nM at human GST-CLK1.

As to `O=C(c1ccc(Nc2nc(NCC3CCC3)c3c(C(F)(F)F)c[nH]c3n2)c2c1OCCO2)N1CCN(C2COC2)CC1` [Example 424, (8-((4-((cyclo-butylmethyl)amino)-5-(trifluoromethyl)-7H-pyrrolo[2,3-d]pyrimidin-2-yl)amino)-2,3-dihydrobenzo[b] [1,4]dioxin-5-yl) (4-(oxetan-3-yl)piperazin-1-yl)methanone], the values for the IC50 on human GST-DYRK1A, against LRRK2 and against human GST-CLK1 were 301 to 1000 nM, under 100 nM and 301 to 1000 nM, respectively.

For `CNc1nc(Nc2ccc(C(=O)N3CCC(N4CCOCC4)CC3)c3c2OCO3)nc2[nH]cc(C(F)(F)F)c12` [Example 215, (7-((4-(methylamino)-5-(trifluoromethyl)-7H-pyrrolo[2,3-d]pyrimidin-2-yl)amino)benzo[d][1,3]dioxol-4-yl)(4-morpholinopiperidin-1-yl)methanone], the IC50 is 101 to 300 nM on human GST-DYRK1A, under 100 nM at LRRK2 and 101 to 300 nM at human GST-CLK1.

With `C=CCNc1nc(Nc2ccc(S(=O)(=O)N3CCOCC3)cc2OC)nc2[nH]cc(C(F)(F)F)c12` [Example 474, N^4-allyl-N^2-(2-methoxy-4-(morpholino-sulfonyl)phenyl)-5-(trifluoromethyl)-7H-pyrrolo[2,3-d]pyrimidine-2,4-diamine], the IC50 on human GST-DYRK1A, against LRRK2 and against human GST-CLK1 was 301 to 1000 nM throughout.

Consider `CCNc1nc(Nc2ccc(P3(=O)CCN(C4COC4)CC3)cc2OC)nc2[nH]cc(C(F)(F)F)c12` [Example 399, 4-(4-((4-(ethylamino)-5-(trifluoromethyl)-7H-pyrrolo[2,3-d]pyrimidin-2-yl)amino)-3-methoxyphenyl)-1-(oxetan-3-yl)-1,4-azaphosphinane 4-oxide], for which the IC50 on human GST-DYRK1A, at LRRK2 and against human GST-CLK1 was under 100 nM each time.

With `COCCNc1nc(Nc2ccc(C(=O)N3CCC(N4CCOCC4)CC3)c3c2OCCO3)nc2[nH]cc(C#N)c12` [Example 256, 4-((2-methoxyethyl)amino)-2-((8-(4-morpholinopiperidine-1-carbonyl)-2,3-dihydrobenzo[b][1,4]dioxin-5-yl)amino)-7H-pyrrolo[2,3-d]pyrimidine-5-carbonitrile], the IC50 at human GST-DYRK1A, on LRRK2 and against human GST-CLK1 was under 100 nM each time.

On to `O=C(c1ccc(Nc2nc(NC3CCCCC3)c3c(C(F)(F)F)c[nH]c3n2)c2c1CCO2)N1CCC(N2CCOCC2)CC1` [Example 460, (7-((4-(cyclo-hexylamino)-5-(trifluoromethyl)-7H-pyrrolo[2,3-d]pyrimidin-2-yl)amino)-2,3-dihydrobenzo-furan-4-yl)(4-morpho-linopiperidin-1-yl)methanone], for which the IC50 at human GST-DYRK1A is 301 to 1000 nM; at LRRK2, under 100 nM; against human GST-CLK1, 301 to 1000 nM.

Consider `CCNc1nc(Nc2ccc(C(=O)N3CCOCC3)c3c2OCO3)nc2[nH]cc(C#N)c12` [Example 277, 4-(ethylamino)-2-((7-(morpholine-4-carbonyl)benzo[d][1,3]dioxol-4-yl)amino)-7H-pyrrolo[2,3-d]pyrimidine-5-carbonitrile], for which the IC50 on human GST-DYRK1A is 301 to 1000 nM; at LRRK2, under 100 nM; on human GST-CLK1 it was 301 to 1000 nM.

For `CCNc1nc(Nc2ccc(P3(=O)CCN(CC)CC3)cc2OC)nc2[nH]cc(C#N)c12` [Example 260, 2-((4-(1-ethyl-4-oxido-1,4-azaphosphinan-4-yl)-2-methoxyphenyl)amino)-4-(ethylamino)-7H-pyrrolo[2,3-d]pyrimidine-5-carbonitrile], the IC50 at human GST-DYRK1A was 101 to 300 nM; against LRRK2 it was under 100 nM; against human GST-CLK1, 101 to 300 nM.

Regarding `CC(C)CNc1nc(Nc2ccc(C(=O)N3CCOCC3)c3c2OCCO3)nc2[nH]cc(C(F)(F)F)c12` [Example 169, (8-((4-(isobutylamino)-5-(trifluoromethyl)-7H-pyrrolo[2,3-d]pyrimidin-2-yl)amino)-2,3-dihydrobenzo[b][1,4]dioxin-5-yl)(morpholino)methanone], the IC50 at human GST-DYRK1A was 301 to 1000 nM; against LRRK2, under 100 nM; against human GST-CLK1, 301 to 1000 nM.

With `N#Cc1c[nH]c2nc(Nc3ccc(C(=O)N4CCOCC4)c4c3OCCO4)nc(NCC3CCC3)c12` [Example 132, 4-((cyclobutylmethyl)amino)-2-((8-(morpholine-4-carbonyl)-2,3-dihydrobenzo[b][1,4]dioxin-5-yl)amino)-7H-pyrrolo[2,3-d]pyrimidine-5-carbonitrile], the IC50 was 301 to 1000 nM on human GST-DYRK1A, under 100 nM on LRRK2 and 301 to 1000 nM against human GST-CLK1.

In the case of `COc1cc(P2(=O)CCN(C3CC3)CC2)ccc1Nc1nc(NC2CC2)c2c(C(F)(F)F)c[nH]c2n1` [Example 404, 1-cyclopropyl-4-(4-((4-(cyclo-propylamino) 5-(trifluoromethyl)-7H-pyrrolo[2,3-d]pyrimidin-2-yl)amino)3-methoxyphenyl)-1,4-azaphosphinane 4-oxide], the IC50 at human GST-DYRK1A, against LRRK2 and against human GST-CLK1 was under 100 nM throughout.

As to `COc1cc(S(C)(=O)=O)ccc1Nc1nc(NCC2CCCC2)c2c(C#N)c[nH]c2n1` [Example 113, 4-((cyclopentylmethyl)amino)-2-((2-methoxy-4-(methylsulfonyl)phenyl)amino)-7H-pyrrolo[2,3-d]pyrimidine-5-carbonitrile], the IC50 was 301 to 1000 nM at human GST-DYRK1A, under 100 nM against LRRK2 and 301 to 1000 nM at human GST-CLK1.

As to `COc1cc(S(=O)(=O)N2CCC(N3CCOCC3)CC2)ccc1Nc1nc(NCC2CCC2)c2c(C#N)c[nH]c2n1` [Example 94, 4-((cyclobutylmethyl)amino)-2-((2-methoxy-4-((4-morpholinopiperidin-1-yl)sulfonyl)phenyl)amino)-7H-pyrrolo[2,3-d]pyrimidine-5-carbonitrile], the IC50 was 301 to 1000 nM on human GST-DYRK1A, under 100 nM on LRRK2 and 301 to 1000 nM against human GST-CLK1.

For `COc1cc(S(C)(=O)=O)ccc1Nc1nc(NCC2CCC2)c2c(C#N)c[nH]c2n1` [Example 112, 4-((cyclobutylmethyl)amino)-2-((2-methoxy-4-(methylsulfonyl)phenyl)amino)-7H-pyrrolo[2,3-d]pyrimidine-5-carbonitrile], the IC50 at human GST-DYRK1A is 301 to 1000 nM; on LRRK2, under 100 nM; on human GST-CLK1, 301 to 1000 nM.

For the compound `CCNc1nc(Nc2ccc(C(=O)N3C[C@@H]4C[C@H]3CO4)c3c2OCCO3)nc2[nH]cc(C(F)(F)F)c12` [Example 409], the IC50 on human GST-DYRK1A, on LRRK2 and against human GST-CLK1 was under 100 nM throughout.

On to `O=C(c1ccc(Nc2nc(NC3CCCCC3)c3c(C(F)(F)F)c[nH]c3n2)c2c1OCCO2)N1CCOCC1` [Example 190, (8-((4-(cyclohexylamino)-5-(trifluoromethyl)-7H-pyrrolo[2,3-d]pyrimidin-2-yl)amino)-2,3-dihydrobenzo[b][1,4]dioxin-5-yl)(morpholino)methanone], for which the IC50 on human GST-DYRK1A was 301 to 1000 nM; against LRRK2, under 100 nM; at human GST-CLK1, 301 to 1000 nM.

As to `CNc1nc(Nc2ccc(P3(=O)CCN(C4CCOCC4)CC3)cc2OC)nc2[nH]cc(C(F)(F)F)c12` [Example 436, 4-(3-methoxy-4-((4-(methylamino)-5-(trifluoromethyl)-7H-pyrrolo[2,3-d]pyrimidin-2-yl)amino)phenyl)-1-(tetrahydro-2H-pyran-4-yl)-1,4-azaphosphinane 4-oxide], the IC50 at human GST-DYRK1A, on LRRK2 and on human GST-CLK1 was under 100 nM each time.

As usually defined, the IC50 is the concentration needed to halve the response being measured.
